Measurements: BigSolDB 2.1

Nc1cc(-c2ccncc2)c[nH]c1=O
solubility (mole fraction)
Settings | 278.15 K | 283.15 K | 288.15 K | 293.15 K | 298.15 K | 303.15 K | 308.15 K | 313.15 K | 318.15 K | 323.15 K
in DMF | 7.24e-05 | 8.63e-05 | 0.000102 | 0.000118 | 0.000135 | 0.000154 | 0.000177 | 0.000203 | 0.000229 | 0.00026
in ethanol | 2.65e-05 | 3.18e-05 | 3.71e-05 | 4.41e-05 | 5.07e-05 | 5.84e-05 | 6.7e-05 | 7.54e-05 | 8.47e-05 | 9.67e-05
in ethylene glycol | 1.95e-05 | 2.33e-05 | 2.74e-05 | 3.26e-05 | 3.83e-05 | 4.35e-05 | 4.95e-05 | 5.62e-05 | 6.36e-05 | 7.18e-05
in methanol | 5.18e-05 | 6.11e-05 | 7.22e-05 | 8.44e-05 | 9.72e-05 | 0.000111 | 0.000126 | 0.000141 | 0.00016 | 0.00018
in water | 6.85e-07 | 8.07e-07 | 9.66e-07 | 1.13e-06 | 1.33e-06 | 1.53e-06 | 1.77e-06 | 2.02e-06 | 2.3e-06 | 2.63e-06
